ChEMBL document CHEMBL5291721, “A preclinical secondary pharmacology resource illuminates target-adverse drug reaction associations of marketed drugs” (Nat Commun, 2023)

What was measured:
[1] = target: T1, Alpha-1A adrenergic receptor (Homo sapiens, UniProt P35348); assay type: functional, cell-based
T1 sequence (P35348 whole entry): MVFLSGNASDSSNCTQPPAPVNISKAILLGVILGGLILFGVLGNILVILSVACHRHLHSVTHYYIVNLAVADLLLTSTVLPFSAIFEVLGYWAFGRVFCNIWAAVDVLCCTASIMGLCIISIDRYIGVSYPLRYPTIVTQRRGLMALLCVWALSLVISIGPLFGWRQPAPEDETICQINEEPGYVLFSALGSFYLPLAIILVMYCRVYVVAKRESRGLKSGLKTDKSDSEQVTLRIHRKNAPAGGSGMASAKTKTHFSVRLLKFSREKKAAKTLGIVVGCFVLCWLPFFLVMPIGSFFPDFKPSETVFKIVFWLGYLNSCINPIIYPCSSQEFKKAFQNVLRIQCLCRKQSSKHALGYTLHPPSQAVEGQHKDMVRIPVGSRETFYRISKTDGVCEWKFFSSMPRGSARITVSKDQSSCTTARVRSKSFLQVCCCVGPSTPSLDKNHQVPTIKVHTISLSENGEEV

[2] = target: T2, Progesterone receptor (Homo sapiens, UniProt P06401); assay type: functional
T2 sequence (P06401 whole entry): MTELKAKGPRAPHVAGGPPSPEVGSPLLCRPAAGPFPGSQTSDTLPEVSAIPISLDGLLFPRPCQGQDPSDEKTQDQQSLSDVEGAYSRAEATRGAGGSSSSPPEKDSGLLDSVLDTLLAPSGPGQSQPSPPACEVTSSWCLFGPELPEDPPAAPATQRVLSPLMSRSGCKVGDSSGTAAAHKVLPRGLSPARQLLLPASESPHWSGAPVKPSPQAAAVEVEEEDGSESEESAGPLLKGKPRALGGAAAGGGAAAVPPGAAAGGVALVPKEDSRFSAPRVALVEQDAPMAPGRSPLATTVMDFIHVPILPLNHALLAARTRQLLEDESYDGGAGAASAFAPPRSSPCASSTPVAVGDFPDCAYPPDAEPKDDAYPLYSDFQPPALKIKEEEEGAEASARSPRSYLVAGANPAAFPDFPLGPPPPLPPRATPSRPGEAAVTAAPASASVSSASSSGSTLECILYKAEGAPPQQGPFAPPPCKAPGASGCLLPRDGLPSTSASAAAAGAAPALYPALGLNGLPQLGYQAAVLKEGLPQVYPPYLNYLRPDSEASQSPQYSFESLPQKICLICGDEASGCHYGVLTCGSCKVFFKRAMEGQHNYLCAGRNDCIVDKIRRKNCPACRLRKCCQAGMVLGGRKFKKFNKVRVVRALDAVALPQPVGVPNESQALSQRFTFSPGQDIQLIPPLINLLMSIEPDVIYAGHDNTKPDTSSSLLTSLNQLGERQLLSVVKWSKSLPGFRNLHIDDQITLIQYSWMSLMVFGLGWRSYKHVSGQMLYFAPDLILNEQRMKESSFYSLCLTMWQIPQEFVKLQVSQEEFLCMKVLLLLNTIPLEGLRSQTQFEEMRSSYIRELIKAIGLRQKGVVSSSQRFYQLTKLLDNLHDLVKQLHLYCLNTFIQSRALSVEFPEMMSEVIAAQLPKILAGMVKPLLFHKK

[3] = target: T3, Glucocorticoid receptor (Homo sapiens, UniProt P04150)
T3 sequence (P04150 whole entry): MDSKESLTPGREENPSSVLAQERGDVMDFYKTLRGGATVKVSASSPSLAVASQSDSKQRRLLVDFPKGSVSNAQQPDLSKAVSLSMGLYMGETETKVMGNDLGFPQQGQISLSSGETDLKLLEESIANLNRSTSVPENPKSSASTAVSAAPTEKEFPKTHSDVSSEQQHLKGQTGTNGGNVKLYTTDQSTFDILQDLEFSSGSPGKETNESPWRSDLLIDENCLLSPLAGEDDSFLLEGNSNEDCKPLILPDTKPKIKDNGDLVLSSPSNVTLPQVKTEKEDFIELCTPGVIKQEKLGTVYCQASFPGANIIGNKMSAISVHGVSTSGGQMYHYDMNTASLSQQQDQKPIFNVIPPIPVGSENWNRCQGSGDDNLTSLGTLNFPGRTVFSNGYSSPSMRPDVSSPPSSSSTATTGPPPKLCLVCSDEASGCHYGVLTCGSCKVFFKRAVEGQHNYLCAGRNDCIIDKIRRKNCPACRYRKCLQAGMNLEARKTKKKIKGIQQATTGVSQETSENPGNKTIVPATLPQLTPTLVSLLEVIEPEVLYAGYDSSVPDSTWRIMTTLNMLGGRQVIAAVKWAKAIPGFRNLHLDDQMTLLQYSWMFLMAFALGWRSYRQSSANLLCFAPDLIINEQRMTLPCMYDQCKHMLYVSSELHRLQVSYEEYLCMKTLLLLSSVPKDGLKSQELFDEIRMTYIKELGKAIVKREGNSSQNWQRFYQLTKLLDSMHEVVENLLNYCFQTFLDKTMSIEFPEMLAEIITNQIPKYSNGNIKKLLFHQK

[4] = target: 5-hydroxytryptamine receptor 2B (Homo sapiens, UniProt P41595); assay type: functional, cell-based
Sequence of 5-hydroxytryptamine receptor 2B (P41595 whole entry): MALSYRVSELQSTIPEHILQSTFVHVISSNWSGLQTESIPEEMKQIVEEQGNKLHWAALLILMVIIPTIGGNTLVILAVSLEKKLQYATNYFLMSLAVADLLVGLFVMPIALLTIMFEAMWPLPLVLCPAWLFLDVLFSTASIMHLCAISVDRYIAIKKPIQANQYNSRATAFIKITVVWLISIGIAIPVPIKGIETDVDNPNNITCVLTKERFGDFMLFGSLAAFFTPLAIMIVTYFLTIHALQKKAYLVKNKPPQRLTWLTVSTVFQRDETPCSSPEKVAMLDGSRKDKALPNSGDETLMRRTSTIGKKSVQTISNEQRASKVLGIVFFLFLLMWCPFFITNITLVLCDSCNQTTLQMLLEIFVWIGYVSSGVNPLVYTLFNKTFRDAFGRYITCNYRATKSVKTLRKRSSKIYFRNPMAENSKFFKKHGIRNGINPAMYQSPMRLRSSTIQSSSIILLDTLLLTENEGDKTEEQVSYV

[5] = target: Vasopressin V1a receptor (Homo sapiens, UniProt P37288)
Sequence of Vasopressin V1a receptor (P37288 whole entry): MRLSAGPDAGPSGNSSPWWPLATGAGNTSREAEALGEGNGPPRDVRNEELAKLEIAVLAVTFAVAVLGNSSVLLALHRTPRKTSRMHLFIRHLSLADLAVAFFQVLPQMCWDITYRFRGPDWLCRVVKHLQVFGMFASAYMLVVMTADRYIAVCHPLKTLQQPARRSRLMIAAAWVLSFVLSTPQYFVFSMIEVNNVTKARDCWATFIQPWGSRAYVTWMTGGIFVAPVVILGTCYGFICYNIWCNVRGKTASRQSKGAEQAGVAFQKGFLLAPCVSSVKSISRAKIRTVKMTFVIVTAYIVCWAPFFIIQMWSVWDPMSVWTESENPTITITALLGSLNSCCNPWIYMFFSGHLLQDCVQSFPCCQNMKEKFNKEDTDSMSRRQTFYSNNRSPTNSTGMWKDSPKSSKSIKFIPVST

[6] = target: Growth hormone secretagogue receptor type 1 (Homo sapiens, UniProt Q92847)
Sequence of Growth hormone secretagogue receptor type 1 (Q92847 whole entry): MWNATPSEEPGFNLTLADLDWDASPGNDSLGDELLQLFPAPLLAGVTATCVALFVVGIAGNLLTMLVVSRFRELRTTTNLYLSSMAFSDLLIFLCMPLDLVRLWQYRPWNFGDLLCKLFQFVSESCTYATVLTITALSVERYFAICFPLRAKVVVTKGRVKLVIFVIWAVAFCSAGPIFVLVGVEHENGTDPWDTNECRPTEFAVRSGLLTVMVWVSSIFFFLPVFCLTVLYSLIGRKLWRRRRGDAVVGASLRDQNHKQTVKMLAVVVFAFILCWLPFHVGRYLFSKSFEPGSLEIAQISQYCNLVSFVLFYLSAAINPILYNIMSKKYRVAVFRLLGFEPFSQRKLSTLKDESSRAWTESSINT

[7] = target: Muscarinic acetylcholine receptor M3 (Homo sapiens, UniProt P20309)
Sequence of Muscarinic acetylcholine receptor M3 (P20309 whole entry): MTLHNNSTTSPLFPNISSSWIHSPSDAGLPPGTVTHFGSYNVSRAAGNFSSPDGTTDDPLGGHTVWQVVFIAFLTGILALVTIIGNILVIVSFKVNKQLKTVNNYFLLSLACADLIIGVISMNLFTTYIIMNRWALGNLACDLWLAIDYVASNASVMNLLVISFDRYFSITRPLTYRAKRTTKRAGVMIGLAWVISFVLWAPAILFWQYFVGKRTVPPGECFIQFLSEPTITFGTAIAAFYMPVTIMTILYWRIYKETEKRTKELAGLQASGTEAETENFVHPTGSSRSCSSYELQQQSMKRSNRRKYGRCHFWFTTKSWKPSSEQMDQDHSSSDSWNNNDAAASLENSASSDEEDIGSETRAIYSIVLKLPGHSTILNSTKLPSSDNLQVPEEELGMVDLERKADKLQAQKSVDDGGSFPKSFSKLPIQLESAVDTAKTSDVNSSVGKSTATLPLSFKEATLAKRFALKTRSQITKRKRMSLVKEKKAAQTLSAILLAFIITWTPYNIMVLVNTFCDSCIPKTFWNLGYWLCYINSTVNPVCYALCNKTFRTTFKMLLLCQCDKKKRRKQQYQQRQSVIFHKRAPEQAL

[8] = target: Beta-2 adrenergic receptor (Homo sapiens, UniProt P07550)
Sequence of Beta-2 adrenergic receptor (P07550 whole entry): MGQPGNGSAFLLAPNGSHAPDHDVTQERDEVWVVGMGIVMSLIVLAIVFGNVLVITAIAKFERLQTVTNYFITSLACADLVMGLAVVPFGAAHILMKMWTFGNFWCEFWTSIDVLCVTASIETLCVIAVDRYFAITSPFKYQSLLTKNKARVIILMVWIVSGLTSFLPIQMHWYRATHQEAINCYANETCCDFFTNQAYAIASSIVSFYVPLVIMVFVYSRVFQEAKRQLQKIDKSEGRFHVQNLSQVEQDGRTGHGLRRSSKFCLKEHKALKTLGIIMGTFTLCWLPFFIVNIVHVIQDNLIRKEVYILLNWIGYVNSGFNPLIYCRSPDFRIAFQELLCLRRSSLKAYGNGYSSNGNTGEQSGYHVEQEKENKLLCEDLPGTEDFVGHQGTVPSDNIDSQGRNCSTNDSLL
Note: assay procedure not described here.

| Compound | AC50 [1] [µM] | AC50 [2] [µM] | AC50 [3] [µM] | AC50 [4] [µM] | AC50 [5] [µM] | AC50 [6] [µM] | AC50 [7] [µM] | AC50 [8] [µM] |
| --- | --- | --- | --- | --- | --- | --- | --- | --- |
| C=C[C@@]1(C)CC(=O)[C@]2(O)[C@@]3(C)[C@@H](O)CCC(C)(C)[C@@H]3[C@H](OC(=O)CCN(C)C)[C@H](OC(C)=O)[C@@]2(C)O1 | 8.3 | > 30 | > 30 | > 30 | > 30 | > 30 | > 30 | – |
| NCCCC(O)(P(=O)(O)O)P(=O)(O)O [ALENDRONIC ACID] | – | – | > 30 | – | > 10 | > 30 | – | > 10 |
| Nc1ccc(C(=O)O)c(O)c1 [AMINOSALICYLIC ACID] | > 30 | > 30 | > 30 | > 30 | – | > 30 | – | – |
| NS(=O)(=O)c1cc2c(cc1C(F)(F)F)NC(Cc1ccccc1)NS2(=O)=O (stereo not given) [BENDROFLUMETHIAZIDE] | – | > 10 | – | > 10 | > 10 | > 10 | > 30 | > 10 |
| COc1cc(OC)c(C(=O)CCCN2CCCC2)c(OC)c1 [BUFLOMEDIL] | > 30 | > 30 | > 30 | > 30 | – | > 30 | – | > 30 |
| CC(C)(C)NCC(O)c1cc(Cl)c(N)c(Cl)c1 (stereo not given) [CLENBUTEROL] | > 30 | > 30 | – | > 30 | – | > 30 | – | – |
| C[C@@H]1C[C@H]2[C@@H]3C[C@H](F)C4=CC(=O)C=C[C@]4(C)[C@@]3(F)[C@@H](O)C[C@]2(C)[C@H]1C(=O)CO [DIFLUCORTOLONE] | – | > 0.03 | – | > 30 | – | – | – | – |

Further lines, results first:

| AC50 [1] [µM] | AC50 [2] [µM] | AC50 [3] [µM] | AC50 [4] [µM] | AC50 [5] [µM] | AC50 [6] [µM] | AC50 [7] [µM] | AC50 [8] [µM] | Compound |
| --- | --- | --- | --- | --- | --- | --- | --- | --- |
| – | > 30 | > 30 | > 30 | – | > 30 | – | > 30 | CCCCCCNC(=O)n1cc(F)c(=O)[nH]c1=O [CARMOFUR] |
| > 30 | > 30 | 6.5 | > 30 | > 30 | > 30 | > 30 | – | COCCOC(=O)C1=C(C)NC(C)=C(C(=O)OC/C=C/c2ccccc2)C1c1cccc([N+](=O)[O-])c1 (stereo not given) [CILNIDIPINE] |
| – | > 3 | 0.11 | – | 3.6 | 5.17 | – | > 30 | COc1cccc2c1C(=O)c1c(O)c3c(c(O)c1C2=O)C[C@@](O)(C(C)=O)C[C@@H]3O[C@H]1C[C@H](N)[C@H](O)[C@H](C)O1 [DAUNORUBICIN] |
| > 30 | – | 25 | > 10 | > 30 | > 30 | > 30 | > 10 | N[C@H](Cc1cc(I)c(Oc2cc(I)c(O)c(I)c2)c(I)c1)C(=O)O [DEXTROTHYROXINE] |
| > 30 | 3.4 | > 30 | – | 7.7 | 14 | 13 | – | CC1(C)C(/C=C/C=C/C=C/C=C2\N(CCCCS(=O)(=O)O)c3ccc4ccccc4c3C2(C)C)=[N+](CCCCS(=O)(=O)[O-])c2ccc3ccccc3c21 [INDOCYANINE GREEN ACID FORM] |
| > 30 | > 30 | > 30 | > 30 | – | > 30 | – | > 30 | Nc1nc2c(c(=O)[nH]1)N(C=O)C(CNc1ccc(C(=O)N[C@@H](CCC(=O)O)C(=O)O)cc1)CN2 (stereo not given in full) [LEUCOVORIN] |
